The experiment concerns the target T1, lysophosphatidic acid receptor 1 (LPA1) (Homo sapiens, UniProt Q92633).
T1 construct: gene LPAR1; human LPA1 with N-terminal HA tag (HA-LPA1), in B103 cell membrane nanovesicles
Put plainly: label-free free-solution assay with compensated interferometric reader (FSA-CIR), receptor nanovesicles, vector-subtracted. Type of experiment: binding. Particulars: read-out: KD ± SEM.
T1 sequence (Q92633 whole entry): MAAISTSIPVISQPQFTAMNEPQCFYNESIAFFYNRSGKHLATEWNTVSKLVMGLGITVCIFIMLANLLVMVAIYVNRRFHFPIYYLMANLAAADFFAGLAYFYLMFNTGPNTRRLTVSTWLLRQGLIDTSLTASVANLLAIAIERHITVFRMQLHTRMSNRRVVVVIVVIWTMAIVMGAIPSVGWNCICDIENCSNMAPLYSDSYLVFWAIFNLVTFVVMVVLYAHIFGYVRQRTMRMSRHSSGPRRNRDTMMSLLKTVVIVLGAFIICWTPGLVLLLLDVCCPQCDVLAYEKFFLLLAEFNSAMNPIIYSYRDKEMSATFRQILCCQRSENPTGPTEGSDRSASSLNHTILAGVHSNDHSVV
As for `CCCCCCCCCCCCCCCC(=O)OC[C@@H](O)COP(=O)(O)O` [16:0 LPA, 1-palmitoyl-LPA], the Kd came out at 1.69 nM.

As to `CCCCCCCC/C=C\CCCCCCCC(=O)OC[C@@H](O)COP(=O)(O)O` [18:1 LPA, 1-oleoyl-LPA], the Kd came out at 2.08 nM.

As for `CCCCC/C=C\C/C=C\C/C=C\C/C=C\CCCC(=O)OC[C@@H](O)COP(=O)(O)O` [20:4 LPA, 1-arachidonoyl-LPA], the Kd is 2.59 nM.

These data come from article PMC7397748, “Unlabeled lysophosphatidic acid receptor binding in free solution as determined by a compensated interferometric reader” (Journal of Lipid Research, 2020).
